Results reported in patent US4011390A, “Semi-synthetic aminocyclitol aminoglycoside antibiotics and methods for the preparation thereof” (Schering-Plough Corporation, priority 1974, dated 1977).
In brackets after ≈: the same amount, converted by molar mass. Like-named read-outs stand apart in the source and are kept apart here.

Assays:
[1] = tested on: Escherichia coli; assay: Protection Tests in Mice; format: in vivo
Description: (§1) In vivo Activity of the Mutamicin 1 and Sisomicin
(§2) Protection Tests in Mice

[2] = tested on: Pseudomonas aeruginosa; assay: Protection Tests in Mice; format: in vivo
Description: as §1, §2

[3] = tested on: Staphylococcus; assay: Protection Tests in Mice; format: in vivo; conditions: Staphylococcus Gray, read-out: PD50
Description: as §1, §2

[4] = tested on: Staphylococcus aureus; assay: Disc test, Bauer-Kirby technique with 10 Mcg. discs; format: cell-based; conditions: Staphylococcus aureus
Description: (§3) Disc Test Results (Replicate Tests) With The Mutamicins, Sisomicin and
(§4) Bauer-Kirby Technique^1 With 10 Mcg. Discs
(§5) ^1 Bauer, Kirby, Sherris and Turck, American Journal of Clinical

[5] = tested on: Bacillus subtilis; assay: as above; format: cell-based; conditions: Bacillus subtilis, ATCC6633, strain ATCC 6633
Description: as §3, §4, §5

[6] = tested on: Escherichia coli; assay: as above; format: cell-based; conditions: Escherichia coli, read-out: Zone Size
Description: as §3, §4, §5

[7] = tested on: Providence 164; assay: as above; format: cell-based; conditions: strain 164
Description: as §3, §4, §5

[8] = tested on: Klebsiella pneumoniae; assay: as above; format: cell-based; conditions: Klebsiella pneumoniae
Description: as §3, §4, §5

[9] = tested on: Pseudomonas aeruginosa; assay: as above; format: cell-based; conditions: Pseudomonas aeruginosa
Description: as §3, §4, §5

[10] = tested on: Streptococcus pyogenes; assay: as above; format: cell-based; conditions: Streptococcus pyogenes
Description: as §3, §4, §5

[11] = tested on: Candida albicans; assay: MIC in Mueller-Hinton Broth pH 7.2; format: cell-based; conditions: Mueller-Hinton Broth pH 7.2, read-out: MIC
Description: (§6) In vitro Activity of the Mutamicins and Sisomicin
(§7) MIC's in Mueller-Hinton Broth pH 7.2

[12] = tested on: Staphylococcus aureus; assay: MIC in Mueller-Hinton Broth pH 7.2; format: cell-based
Description: as §6, §7

[13] = tested on: Providence; assay: MIC in Mueller-Hinton Broth pH 7.2; format: cell-based; conditions: strain (Genta. R.) 164
Description: as §6, §7

[14] = tested on: Bacillus subtilis; assay: MIC in Mueller-Hinton Broth pH 7.2; format: cell-based; conditions: ATCC6633, strain ATCC 6633
Description: as §6, §7

[15] = tested on: Proteus rettgeri; assay: MIC in Mueller-Hinton Broth pH 7.2; format: cell-based; conditions: Providencia rettgeri; Mueller-Hinton Broth pH 7.2; read-out: MIC
Description: as §6, §7

[16] = tested on: Escherichia coli; assay: MIC in Mueller-Hinton Broth pH 7.2; format: cell-based
Description: as §6, §7

[17] = tested on: Klebsiella pneumoniae; assay: MIC in Mueller-Hinton Broth pH 7.2; format: cell-based
Description: as §6, §7

[18] = tested on: Trichophyton rubrum; assay: MIC in Mueller-Hinton Broth pH 7.2; format: cell-based; conditions: Mueller-Hinton Broth pH 7.2, read-out: MIC
Description: as §6, §7

[19] = tested on: Pseudomonas aeruginosa; assay: MIC in Mueller-Hinton Broth pH 7.2; format: cell-based
Description: as §6, §7

[20] = tested on: Serratia; assay: MIC in Mueller-Hinton Broth pH 7.2; format: cell-based; conditions: strain 127, Mueller-Hinton Broth pH 7.2, read-out: MIC
Description: as §6, §7

[21] = tested on: Streptococcus pyogenes; assay: MIC in Mueller-Hinton Broth pH 7.2; format: cell-based
Description: as §6, §7

[22] = tested on: Salmonella typhimurium; assay: MIC in Mueller-Hinton Broth pH 7.2; format: cell-based; conditions: Salmonella enterica, strain B
Description: as §6, §7

[23] = tested on: Aspergillus niger; assay: MIC in Mueller-Hinton Broth pH 7.2; format: cell-based; conditions: Mueller-Hinton Broth pH 7.2, read-out: MIC
Description: as §6, §7

[24] = Acute Toxicity; conditions: mouse, in vivo

In the case of `CN[C@@H]1[C@@H](O)[C@@H](O[C@H]2[C@H](N)[C@@H](O)[C@H](N)[C@@H](O[C@H]3OC(CN)=CC[C@H]3N)[C@@H]2O)OC[C@]1(C)O` [Mutamicin 1], the ED50 ([1]; Escherichia coli 6922, read-out: PD50) is reported as 2.5 mg/kg, the ED50 ([1]; Escherichia coli Sc., read-out: PD50) is reported as 5 mg/kg and the ED50 ([2]; Pseudomonas aeruginosa 2552, read-out: PD50) is reported as 15.3 mg/kg. For the same compound, the ED50 ([2]; Pseudomonas aeruginosa 2557, read-out: PD50) was 17.1 mg/kg, the ED50 ([2]; sc, Pseudomonas aeruginosa Sc., read-out: PD50) was 2.5 mg/kg and the ED50 [3] was 6 mg/kg. The zone of inhibition at 10 µg/disc ([4]; ATCC6538P, strain ATCC 6538P) was 26 mm, the zone of inhibition at 10 µg/disc ([4]; strain 59N) was 26 mm and the zone of inhibition at 10 µg/disc ([4]; strain Wood) was 28 mm. For the same compound, the zone of inhibition at 10 µg/disc ([4]; strain Ziegler) was 25 mm, the zone of inhibition at 10 µg/disc [5] was 31 mm and the zone of inhibition at 10 µg/disc ([6]; ATCC10536, strain ATCC 10536, 10 Mcg. discs) was 31 mm. The zone of inhibition at 10 µg/disc [6] was 11 mm, the zone of inhibition at 10 µg/disc ([6]; strain 589, 10 Mcg. discs) was 29 mm and the zone of inhibition at 10 µg/disc ([6]; strain JR90, 10 Mcg. discs) was 0 mm. The zone of inhibition at 10 µg/disc ([6]; strain LA290/R55, 10 Mcg. discs) was 29 mm, the zone of inhibition at 10 µg/disc ([6]; strain Swidinsky 4195, 10 Mcg. discs) was 28 mm and the zone of inhibition at 10 µg/disc ([6]; strain W677/R55, 10 Mcg. discs) was 30 mm. For the same compound, the zone of inhibition at 10 µg/disc [7] was 15 mm, the zone of inhibition at 10 µg/disc ([8]; strain Ad 17) was 24 mm and the zone of inhibition at 10 µg/disc ([8]; strain Ad 18) was 26 mm. For the same compound, the zone of inhibition at 10 µg/disc ([8]; strain Georgetown 3020) was 26 mm, the zone of inhibition at 10 µg/disc ([8]; strain Georgetown 3694) was 26 mm and the zone of inhibition at 10 µg/disc ([9]; strain Capetown 18) was 19 mm. The zone of inhibition at 10 µg/disc ([9]; strain D-2) was 21 mm, the zone of inhibition at 10 µg/disc ([9]; strain St. Michael 413) was 27 mm and the zone of inhibition at 10 µg/disc ([9]; strain St. Michael 762) was 24 mm. The zone of inhibition at 10 µg/disc ([9]; strain St. Michael 1262) was 18 mm, the zone of inhibition at 10 µg/disc ([9]; strain St. Michael 1395) was 29 mm and the zone of inhibition at 10 µg/disc ([9]; strain Stone 20) was 31 mm. It also gave a zone of inhibition at 10 µg/disc ([9]; strain Stone 39) of 29 mm, a zone of inhibition at 10 µg/disc ([9]; strain Stone 130) of 14 mm and a zone of inhibition at 10 µg/disc ([9]; strain Stone 138) of 15 mm. For the same compound, the zone of inhibition at 10 µg/disc ([10]; strain B-Cruz) was 17 mm, the zone of inhibition at 10 µg/disc ([10]; strain C) was 13 mm and the MIC [11] was > 25 µg/mL. For the same compound, the MIC ([12]; ATCC6538P, pH 7.2, strain ATCC 6538P) was 0.3 µg/mL (≈ 0.647 µM), the MIC ([12]; pH 7.2, strain 59N) was 0.3 µg/mL (≈ 0.647 µM) and the MIC ([12]; pH 7.2, strain 1118) was 3 µg/mL (≈ 6.47 µM). For the same compound, the MIC ([12]; pH 7.2, strain Grey) was 3 µg/mL (≈ 6.47 µM), the MIC ([12]; pH 7.2, strain Wood) was 0.08 µg/mL (≈ 0.173 µM) and the MIC ([12]; pH 7.2, strain Ziegler) was 0.08 µg/mL (≈ 0.173 µM). For the same compound, the MIC [13] was > 25 µg/mL, the MIC [14] was 0.03 µg/mL (≈ 0.0647 µM) and the MIC [15] was 3 µg/mL (≈ 6.47 µM). The MIC ([16]; ATCC10536, pH 7.2, strain ATCC 10536) was 0.3 µg/mL (≈ 0.647 µM), the MIC ([16]; pH 7.2, strain Baker 2) was 3 µg/mL (≈ 6.47 µM) and the MIC ([16]; pH 7.2, strain Fl4-Bk) was 3 µg/mL (≈ 6.47 µM). The MIC ([16]; pH 7.2, strain Genta. adenyl LA290-R55) was 3 µg/mL (≈ 6.47 µM), the MIC ([16]; pH 7.2, strain Genta. adenyl W677/R55) was 0.8 µg/mL (≈ 1.73 µM) and the MIC ([16]; pH 7.2, strain Kana. phosphor. 589) was 3 µg/mL (≈ 6.47 µM). The MIC ([16]; pH 7.2, strain Kana. phosphor. C-13) was 3 µg/mL (≈ 6.47 µM), the MIC ([16]; pH 7.2, strain Tobra. R 4195) was 3 µg/mL (≈ 6.47 µM) and the MIC ([17]; pH 7.2, strain Ad 18) was 0.3 µg/mL (≈ 0.647 µM). It also gave an MIC ([17]; pH 7.2, strain Genta. adenyl 121) of 3 µg/mL (≈ 6.47 µM), an MIC ([17]; pH 7.2, strain Genta. adenyl 3020) of 0.3 µg/mL (≈ 0.647 µM) and an MIC ([17]; pH 7.2, strain Genta. adenyl 3694) of 0.3 µg/mL (≈ 0.647 µM). The MIC ([17]; pH 7.2, strain Kana. phos. Ad 22) was 0.3 µg/mL (≈ 0.647 µM), the MIC [18] was > 10 µg/mL and the MIC ([19]; pH 7.2) was > 25 µg/mL. It also gave an MIC ([19]; pH 7.2, strain 762, Mueller-Hinton Broth pH 7.2, read-out: MIC) of 3 µg/mL (≈ 6.47 µM), an MIC ([19]; pH 7.2, strain 1262, Mueller-Hinton Broth pH 7.2, read-out: MIC) of 3 µg/mL (≈ 6.47 µM) and an MIC ([19]; pH 7.2, strain 1395, Mueller-Hinton Broth pH 7.2, read-out: MIC) of 3 µg/mL (≈ 6.47 µM). It also gave an MIC ([19]; pH 7.2, strain D-2, Mueller-Hinton Broth pH 7.2, read-out: MIC) of 0.8 µg/mL (≈ 1.73 µM), an MIC ([19]; pH 7.2, strain Genta. acetyl Capetown 18, Mueller-Hinton Broth pH 7.2, read-out: MIC) of 7.5 µg/mL (≈ 16.2 µM) and an MIC ([19]; pH 7.2, strain Genta. acetyl Stone 130, Mueller-Hinton Broth pH 7.2, read-out: MIC) of 17.5 µg/mL (≈ 37.8 µM). The MIC ([19]; pH 7.2, strain NRRL B3223, Mueller-Hinton Broth pH 7.2, read-out: MIC) was 0.3 µg/mL (≈ 0.647 µM), the MIC ([19]; pH 7.2, strain Stone 20, Mueller-Hinton Broth pH 7.2, read-out: MIC) was 3 µg/mL (≈ 6.47 µM) and the MIC ([19]; pH 7.2, strain Stone 39, Mueller-Hinton Broth pH 7.2, read-out: MIC) was 3 µg/mL (≈ 6.47 µM). It also gave an MIC ([19]; pH 7.2, strain Stone 138, Mueller-Hinton Broth pH 7.2, read-out: MIC) of 17.5 µg/mL (≈ 37.8 µM), an MIC [20] of 0.8 µg/mL (≈ 1.73 µM) and an MIC ([21]; pH 7.2, strain 27) of 7.5 µg/mL (≈ 16.2 µM). It also gave an MIC ([21]; pH 7.2, strain Alvarez) of 7.5 µg/mL (≈ 16.2 µM), an MIC ([21]; pH 7.2, strain C) of 3 µg/mL (≈ 6.47 µM) and an MIC ([21]; pH 7.2, strain Cruz) of 3 µg/mL (≈ 6.47 µM). For the same compound, the MIC ([21]; pH 7.2, strain Karipeds) was 3 µg/mL (≈ 6.47 µM), the MIC ([21]; pH 7.2, strain Labay) was 7.5 µg/mL (≈ 16.2 µM) and the MIC [22] was 3 µg/mL (≈ 6.47 µM). The MIC [23] was > 10 µg/mL, the LD50 ([24]; ip) was > 700 mg/kg and the LD50 ([24]; iv) was 110 mg/kg.
